Test results reported in paper PMC11768083, “Crude Drugs for Clearing Heat Contain Compounds Exhibiting Anti-Inflammatory Effects in Interleukin-1β-Treated Rat Hepatocytes” (Molecules, 2025).
“Also recorded” adds a separate entry of the source. Like-named read-outs stand apart in the source and are kept apart here.

What was measured:
[1] = test system: NO production in IL-1β-treated rat hepatocytes; assay: NO production (nitrite, Griess method) in IL-1β-treated primary-cultured rat hepatocytes; format: cell-based; settings: for IC50: Rattus norvegicus, Hepatocyte
Protocol: (§1) After acclimatization, the Wistar rats were euthanized by the intraperitoneal administration of an anesthetic combination of medetomidine hydrochloride, midazolam, and butorphanol tartrate. Rat livers were used to prepare hepatocytes as previously described. In brief, the liver was perfused with collagenase. The cells were resuspended in Williams’ E (WE) medium supplemented with 10% newborn calf serum, 10 nM dexamethasone, and 10 nM human insulin and seeded at 1.2 ×10^6 cells per 35 mm diameter dish. After the medium was replaced with serum-free WE medium, the cells were incubated overnight. The next day, the medium was replaced with WE medium containing 1 nM recombinant rat IL-1β [54] and/or a fraction or compound. The hepatocytes were further incubated at 37 °C for 4 h before RNA extraction or for 8 h before measuring the NO levels and performing a Western blot analysis of the cell lysates.
(§2) After 8 h of incubation with 1 nM IL-1β and/or a fraction or compound, nitrite (a stable metabolite of NO) was measured in triplicate using the Griess method. The NO concentration in the medium alone was set at 0%, whereas the concentration in the medium including IL-1β alone was set at 100%. […] Cytotoxicity was monitored by estimating the LDH activity in the medium using LDH Cytotoxicity Detection Kits (Takara Bio Inc., Kusatsu, Japan). The Griess reagent was added to the medium and incubated at 20–23 °C for 5 min, and the absorbance at 540 nm was measured to determine the decrease in nitrite. The LDH activity of the whole-cell extract was assumed to be 100%, whereas the LDH activity of the medium alone was assumed to have no cytotoxicity (i.e., less than 5% of the LDH activity of the whole-cell extract).

[2] = test system: NO production in IL-1β-treated rat hepatocytes; settings: cited from earlier work
[3] = test system: Il1r1 mRNA; assay: RT-qPCR of Il1r1 mRNA in IL-1β-treated hepatocytes; format: cell-based, rat; settings: with IL-1β; normalized to Ef1a mRNA; versus IL-1β alone
Protocol: as §1
(§3) Hepatocytes were lysed in Sepasol I Super G solution (Nacalai Tesque, Inc.) to extract total RNA, which was purified using an RNAqueous Kit and a TURBO DNA-free Kit (Applied Biosystems, Austin, TX, USA). The resulting RNA was converted to cDNA, which was amplified by PCR in triplicate with primers, SYBR Green I, and the Thermal Cycler Dice Real-Time System (Takara Bio Inc.). Ct values were calculated by the ΔΔCt method and then normalized to elongation factor 1α (Ef1a) mRNA [18, 54]. […]

[4] = test system: Tnf mRNA; assay: RT-qPCR of Tnf mRNA in IL-1β-treated hepatocytes; format: cell-based, rat; settings: with IL-1β; normalized to Ef1a mRNA; versus IL-1β alone
Protocol: as §1
(§4) Hepatocytes were lysed in Sepasol I Super G solution (Nacalai Tesque, Inc.) to extract total RNA, which was purified using an RNAqueous Kit and a TURBO DNA-free Kit (Applied Biosystems, Austin, TX, USA). The resulting RNA was converted to cDNA, which was amplified by PCR in triplicate with primers, SYBR Green I, and the Thermal Cycler Dice Real-Time System (Takara Bio Inc.). Ct values were calculated by the ΔΔCt method and then normalized to elongation factor 1α (Ef1a) mRNA [18, 54]. The mRNA levels normalized to the total RNA from the livers of the […] were set at 100%.

[5] = test system: primary-cultured rat hepatocytes; assay: LDH activity in the hepatocyte medium (cytotoxicity); format: cell-based; settings: for Cytotoxicity / LDH activity of the medium: hepatocytes, 8 h incubation; for LDH activity in the medium (cytotoxicity): at the concentrations of the NO assay, 8 h
Protocol: as §2

[6] = test system: iNOS mRNA; assay: RT-qPCR of iNOS mRNA in IL-1β-treated hepatocytes; format: cell-based, rat; settings: with IL-1β; normalized to Ef1a mRNA; versus IL-1β alone
Protocol: as §1, §4

[7] = test system: lymphotoxin β (Ltb) mRNA; assay: RT-qPCR of Ltb mRNA in IL-1β-treated hepatocytes; format: cell-based, rat; settings: with IL-1β, 4 h; normalized to Ef1a mRNA
Protocol: as §1, §3

[8] = test system: Il1r1 mRNA; settings: cited from earlier work
[9] = test system: iNOS antisense transcript (iNOS-AS); assay: RT-qPCR of iNOS antisense transcript in IL-1β-treated hepatocytes; format: cell-based, rat; settings: with IL-1β; RNA 3 h after addition
Protocol: as §1, with “The hepatocytes were further incubated at 37 °C for 4 h before RNA extraction or for 8 h before measuring the NO levels and performing a Western blot analysis of the cell lysates.” left out
as §4

[10] = test system: iNOS protein; assay: Immunoblot of iNOS protein in IL-1β-treated hepatocytes; format: cell-based, rat; settings: with IL-1β, 8 h; β-tubulin control
Protocol: as §1
Hepatocyte lysates were prepared, resolved on a 10% sodium dodecyl sulfate–polyacrylamide gel, and transferred onto a membrane, as previously described. […] The protein of interest was visualized by ECL Western blotting Detection Reagents (Cytiva, Tokyo, Japan) and detected using an Amersham Imager 600 (Cytiva).

[11] = test system: rat liver injuries caused by ischemia–reperfusion and partial hepatectomy; design: method as in PMID 38727775; settings: cited from earlier work
[12] = test system: iNOS antisense transcript (iNOS-AS); design: method as in PMID 28681120, doi:10.7243/2050-0874-1-2, PMID 27774888; settings: cited from earlier work
[13] = test system: LPS-treated RAW264.7 cells; design: method as in PMID 38339007; settings: read-out: IC50 for NO production; cited from earlier work
[14] = constituents of Atractylodes chinensis rhizomes
[15] = 1 nM IL-1β, 8 h, means ± SDs, at least three experiments, read-out: IC50 (μM) for NO production in IL-1β-stimulated hepatocytes
[16] = means ± SDs, read-out: IC50 (μM) for NO production in IL-1β-stimulated hepatocytes

O=C(O)[C@H]1O[C@@H](Oc2cc3oc(-c4ccccc4)cc(=O)c3c(O)c2O)[C@H](O)[C@@H](O)[C@@H]1O [Baicalin]
IC50 relative to that of baicalein ([1]; IL-1β-treated hepatocytes, greater than baicalein): 3.3 fold
IC50 ([1]; authors' unpublished data (A.F., K.I., M.N.), read-out: IC50 for NO production in IL-1β-treated hepatocytes): 55 µM

C=C1CCC[C@]2(C)CC[C@@H](C(C)(C)O)C[C@@H]12 [β-eudesmol]
IC50 for inhibition of NO production in hepatocytes [2, 14]: could not be calculated

CC1=CCC[C@H](C)[C@@]12CC[C@@H](C(C)(C)O)C2 [(+)-hinesol]
IC50 for inhibition of NO production in hepatocytes [2, 14]: could not be calculated

O=c1cc(-c2ccc(Oc3ccc(-c4cc(=O)c5c(O)cc(O)cc5o4)cc3O)cc2)oc2cc(O)cc(O)c12 [Loniflavone, loniflavone]
Il1r1 mRNA level [3]: significantly decreased
Tnf mRNA level [4]: decreased
IC50 [1, 15]: 1.64 ± 0.17 µM
Cytotoxicity / LDH activity of the medium [5]: Cytotoxicity was not observed
iNOS mRNA level [6]: decreased

C=C[C@H](/C=C\c1ccc(O)cc1)c1ccc(O)cc1 [(−)-Nyasol, (−)-nyasol]
Tnf mRNA level [4]: significantly reduced
IC50 [1, 15]: 18.3 ± 2.99 µM
LDH activity in the medium (cytotoxicity) [5]: < 5 % of the activity of the whole-cell extract
iNOS mRNA level [6]: significantly decreased
Ltb mRNA level [7]: significantly reduced

CC(=O)Oc1ccccc1C(=O)O [aspirin]
Il1r1 gene expression ([8]; rat hepatocytes): suppress

O=c1cc(-c2ccccc2)oc2cc(O)c(O)c(O)c12 [Baicalein, baicalein]
iNOS-AS level [9]: inhibited iNOS-AS in a concentration-dependent manner
IC50 [1, 15]: 16.8 ± 7.93 µM
iNOS protein level [10]: reduced
LDH activity in the medium (cytotoxicity) [5]: < 5 % of the activity of the whole-cell extract
Liver injury [11]: attenuated
iNOS mRNA level [6]: reduced

CC(C(=O)O)c1ccc(CC2CCCC2=O)cc1 (centres unmarked) [loxoprofen]
Il1r1 gene expression ([8]; rat hepatocytes): suppress

COc1cc(C2OCC3C(c4ccc(OC)c(OC)c4)OCC23)ccc1O (single isomer, unassigned; (+)) [(+)-Phillygenin, (+)-phillygenin]
Il1r1 mRNA level [3]: decreased
Tnf mRNA level [4]: decreased
IC50 [1, 15]: 193 ± 47.6 µM
Cytotoxicity / LDH activity of the medium [5]: background LDH activity at concentrations up to 300 μM; also recorded: without showing cytotoxicity
iNOS mRNA level [6]: decreased

COC(=O)C1=CO[C@@H](O)[C@@H]2C(CO)=CC[C@H]12 [Genipin, genipin]
iNOS-AS level [12]: reducing iNOS-AS
IC50 [1, 15]: 4.4 ± 0.85 µM

C=C(C)[C@@H]1CC[C@]2(C(=O)O)CC[C@]3(C)[C@H](CC[C@@H]4[C@@]5(C)CC[C@H](O)C(C)(C)[C@@H]5CC[C@]43C)[C@@H]12 [betulinic acid, reference compound]
Cytotoxicity / LDH activity of the medium [5]: increased LDH activity in a concentration-dependent manner

COC(=O)C1=CO[C@@H](O[C@@H]2O[C@H](CO)[C@@H](O)[C@H](O)[C@H]2O)[C@@H]2C(CO)=CC[C@H]12 [geniposide]
Effect on IL-1β-induced NO production ([1]; IL-1β-treated hepatocytes): did not decrease NO production
Inhibition of NO production ([1]; up to a final concentration of 800 μM): did not inhibit NO production
IC50 [13]: 136 µM

CC1(C)CC[C@]2(C(=O)O)CC[C@]3(C)C(=CC[C@@H]4[C@@]5(C)CC[C@H](O)C(C)(C)[C@@H]5CC[C@]43C)[C@@H]2C1 [oleanolic acid, reference compound]
Cytotoxicity / LDH activity of the medium [5]: increased LDH activity in a concentration-dependent manner

CC1(C)OC(=O)C=C[C@]2(C)[C@H]3CC[C@@]4(C)[C@H](c5ccoc5)OC(=O)[C@H]5O[C@]54[C@]3(C)C(=O)C[C@@H]12 [Obakunone]
iNOS-AS level [12]: reducing iNOS-AS
IC50 [2, 16]: 2.6 ± 1.1 µM

C/C=C/C#CC#C/C=C/c1ccco1 [atractylodin]
IC50 ([2]; constituents of Atractylodes chinensis rhizomes, read-out: IC50 for inhibition of NO production in hepatocytes): 8.25 µM

COc1ccc2cc3[n+](cc2c1OC)CCc1cc2c(cc1-3)OCO2 [Berberine]
IC50 [2, 16]: 12 ± 3.4 µM

COc1cc(O)c2c(c1)O[C@H](c1ccc(O)cc1)CC2=O [Sakuranetin, (S)-(–)-4′,5-dihydroxy-7-methoxyflavanone]
Il1r1 gene expression [8]: decreases

O=C(/C=C/c1ccc(O)c(O)c1)O[C@@H]1C[C@](O)(C(=O)O)C[C@@H](O)[C@H]1O [Chlorogenic acid]
iNOS-AS level [12]: reducing iNOS-AS
IC50 [2, 16]: 652 ± 114 µM
